Test results taken from PubChem BioAssay AID2060909 (Molecular Pharmacology Branch, DTP, NCI, 2025).

System: 362531-283-R-J2-PDC complex spheroid viability
Test: Anticancer human tumor 362531-283-R-J2-PDC patient-derived colon adenocarcinoma cell line growth inhibition [RAS]
Conditions: for IC50: curve of first compound; for viability, T/C: stronger effect = lower value; active = viability on the fitted dose curve at most 10% of control; inactive = the rest
How it was run: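 Multi-cell-type spheroids: tumor cells plus HUVEC endothelial cells and mesenchymal stem cells. RAS-pathway inhibitors were combined with targeted agents, each dosed in half-log steps down from clinical Cmax, or from 10 microM when Cmax was unknown.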
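Also: spheroids exposed to the agents for 7 days before readout.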
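For viability, T/C in this document: luminescence viability as percent of DMSO vehicle control wells.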

CC(C)NCC(C(=O)N1CCN(c2ncnc3c2C(C)CC3O)CC1)c1ccc(Cl)cc1 (stereo unspecified) + CCn1c(-c2cc(N3CCN(C)CC3)cnc2C(C)OC)c2c3cc(ccc31)-c1csc(n1)CC(NC(=O)C1CC1C)C(=O)N1CCCC(N1)C(=O)OCC(C)(C)C2
> 10 µM: IC50 (second compound 0.000949 µM) | IC50 (second compound 0.003 µM) | IC50 (second compound 0.00949 µM) | IC50 (second compound 0.03 µM) | IC50 (second compound 0.0949 µM)
< 0.0316 µM: IC50 (second compound 0.3 µM)
inactive: viability, T/C (second compound 0.000949 µM, first compound 0.0316 µM) 103% | viability, T/C (second compound 0.000949 µM, first compound 0.1 µM) 103% | viability, T/C (second compound 0.000949 µM, first compound 0.316 µM) 101% | viability, T/C (second compound 0.000949 µM, first compound 1 µM) 99.5% | viability, T/C (second compound 0.000949 µM, first compound 3.16 µM) 92.7% | viability, T/C (second compound 0.000949 µM, first compound 10 µM) 89.7% | viability, T/C (second compound 0.003 µM, first compound 0.0316 µM) 95.6% | viability, T/C (second compound 0.003 µM, first compound 0.1 µM) 109% | viability, T/C (second compound 0.003 µM, first compound 0.316 µM) 97.8% | viability, T/C (second compound 0.003 µM, first compound 1 µM) 98.7% | viability, T/C (second compound 0.003 µM, first compound 3.16 µM) 106% | viability, T/C (second compound 0.003 µM, first compound 10 µM) 100% | viability, T/C (second compound 0.00949 µM, first compound 0.0316 µM) 103% | viability, T/C (second compound 0.00949 µM, first compound 0.1 µM) 110% | viability, T/C (second compound 0.00949 µM, first compound 0.316 µM) 89.7% | viability, T/C (second compound 0.00949 µM, first compound 1 µM) 99% | viability, T/C (second compound 0.00949 µM, first compound 3.16 µM) 93.6% | viability, T/C (second compound 0.00949 µM, first compound 10 µM) 93.2% | viability, T/C (second compound 0.03 µM, first compound 0.0316 µM) 99.4% | viability, T/C (second compound 0.03 µM, first compound 0.1 µM) 83.8% | viability, T/C (second compound 0.03 µM, first compound 0.316 µM) 84.1% | viability, T/C (second compound 0.03 µM, first compound 1 µM) 87.8% | viability, T/C (second compound 0.03 µM, first compound 3.16 µM) 92.6% | viability, T/C (second compound 0.03 µM, first compound 10 µM) 85.7% | viability, T/C (second compound 0.0949 µM, first compound 0.0316 µM) 81.8% | viability, T/C (second compound 0.0949 µM, first compound 0.1 µM) 101% | viability, T/C (second compound 0.0949 µM, first compound 0.316 µM) 86.1% | viability, T/C (second compound 0.0949 µM, first compound 1 µM) 72.3% | viability, T/C (second compound 0.0949 µM, first compound 3.16 µM) 76.4% | viability, T/C (second compound 0.0949 µM, first compound 10 µM) 65.4% | viability, T/C (second compound 0.3 µM, first compound 0.0316 µM) 46.8% | viability, T/C (second compound 0.3 µM, first compound 0.1 µM) 53.9% | viability, T/C (second compound 0.3 µM, first compound 0.316 µM) 42.6% | viability, T/C (second compound 0.3 µM, first compound 1 µM) 41.6% | viability, T/C (second compound 0.3 µM, first compound 3.16 µM) 31% | viability, T/C (second compound 0.3 µM, first compound 10 µM) 33.5%

CC1(O)CCCC1n1c(=O)c(C(F)F)cc2cnc(NC3CCN(S(C)(=O)=O)CC3)nc21 (stereo unspecified) + C=CC(=O)N1CCN(c2nc(OCC3CCCN3C)nc3c(F)c(-c4nc(N)cc(C)c4C(F)(F)F)c(Cl)cc23)C(C)C1
> 10 µM: IC50 (second compound 0.00316 µM) | IC50 (second compound 0.01 µM) | IC50 (second compound 0.0316 µM) | IC50 (second compound 0.1 µM) | IC50 (second compound 0.316 µM) | IC50 (second compound 1 µM)
inactive: viability, T/C (second compound 0.00316 µM, first compound 0.0316 µM) 97.6% | viability, T/C (second compound 0.00316 µM, first compound 0.1 µM) 98% | viability, T/C (second compound 0.00316 µM, first compound 0.316 µM) 77.6% | viability, T/C (second compound 0.00316 µM, first compound 1 µM) 68.3% | viability, T/C (second compound 0.00316 µM, first compound 3.16 µM) 64.8% | viability, T/C (second compound 0.00316 µM, first compound 10 µM) 101% | viability, T/C (second compound 0.01 µM, first compound 0.0316 µM) 101% | viability, T/C (second compound 0.01 µM, first compound 0.1 µM) 97.1% | viability, T/C (second compound 0.01 µM, first compound 0.316 µM) 83.1% | viability, T/C (second compound 0.01 µM, first compound 1 µM) 75.5% | viability, T/C (second compound 0.01 µM, first compound 3.16 µM) 68.6% | viability, T/C (second compound 0.01 µM, first compound 10 µM) 65.7% | viability, T/C (second compound 0.0316 µM, first compound 0.0316 µM) 102% | viability, T/C (second compound 0.0316 µM, first compound 0.1 µM) 93.2% | viability, T/C (second compound 0.0316 µM, first compound 0.316 µM) 82.8% | viability, T/C (second compound 0.0316 µM, first compound 1 µM) 76.1% | viability, T/C (second compound 0.0316 µM, first compound 3.16 µM) 60% | viability, T/C (second compound 0.0316 µM, first compound 10 µM) 95.2% | viability, T/C (second compound 0.1 µM, first compound 0.0316 µM) 91.5% | viability, T/C (second compound 0.1 µM, first compound 0.1 µM) 95% | viability, T/C (second compound 0.1 µM, first compound 0.316 µM) 93.5% | viability, T/C (second compound 0.1 µM, first compound 1 µM) 75.2% | viability, T/C (second compound 0.1 µM, first compound 3.16 µM) 54.1% | viability, T/C (second compound 0.1 µM, first compound 10 µM) 89.7% | viability, T/C (second compound 0.316 µM, first compound 0.0316 µM) 97.2% | viability, T/C (second compound 0.316 µM, first compound 0.1 µM) 92.5% | viability, T/C (second compound 0.316 µM, first compound 0.316 µM) 89.2% | viability, T/C (second compound 0.316 µM, first compound 1 µM) 70.2% | viability, T/C (second compound 0.316 µM, first compound 3.16 µM) 64.4% | viability, T/C (second compound 0.316 µM, first compound 10 µM) 69.1% | viability, T/C (second compound 1 µM, first compound 0.0316 µM) 98.6% | viability, T/C (second compound 1 µM, first compound 0.1 µM) 104% | viability, T/C (second compound 1 µM, first compound 0.316 µM) 89.9% | viability, T/C (second compound 1 µM, first compound 1 µM) 77.4% | viability, T/C (second compound 1 µM, first compound 3.16 µM) 70.8% | viability, T/C (second compound 1 µM, first compound 10 µM) 53%

CC1(C)CCC(Nc2ncc(C(F)(F)F)c(-c3c[nH]c4c(P(C)(C)=O)c(C#N)ccc34)n2)CN1 (stereo unspecified) + CCn1c(-c2cccnc2C(C)OC)c2c3cc(ccc31)N1CCOC(CC(NC(=O)C(C(C)C)N(C)C(=O)C3(F)CCN(C(=O)C#CC(C)(C)N(C)C)CC3)C(=O)N3CCCC(N3)C(=O)OCC(C)(C)C2)C1
inactive: viability, T/C (second compound 0.000949 µM, first compound 0.000949 µM) 105% | viability, T/C (second compound 0.000949 µM, first compound 0.003 µM) 99.2% | viability, T/C (second compound 0.000949 µM, first compound 0.00949 µM) 102% | viability, T/C (second compound 0.000949 µM, first compound 0.03 µM) 98.3% | viability, T/C (second compound 0.000949 µM, first compound 0.0949 µM) 108% | viability, T/C (second compound 0.000949 µM, first compound 0.3 µM) 99.1% | viability, T/C (second compound 0.003 µM, first compound 0.000949 µM) 110% | viability, T/C (second compound 0.003 µM, first compound 0.003 µM) 99.3% | viability, T/C (second compound 0.003 µM, first compound 0.00949 µM) 98% | viability, T/C (second compound 0.003 µM, first compound 0.03 µM) 92.6% | viability, T/C (second compound 0.003 µM, first compound 0.0949 µM) 107% | viability, T/C (second compound 0.003 µM, first compound 0.3 µM) 89.1% | viability, T/C (second compound 0.00949 µM, first compound 0.000949 µM) 97.5% | viability, T/C (second compound 0.00949 µM, first compound 0.003 µM) 102% | viability, T/C (second compound 0.00949 µM, first compound 0.00949 µM) 87.3% | viability, T/C (second compound 0.00949 µM, first compound 0.03 µM) 105% | viability, T/C (second compound 0.00949 µM, first compound 0.0949 µM) 102% | viability, T/C (second compound 0.00949 µM, first compound 0.3 µM) 104% | viability, T/C (second compound 0.03 µM, first compound 0.000949 µM) 98.5% | viability, T/C (second compound 0.03 µM, first compound 0.003 µM) 110% | viability, T/C (second compound 0.03 µM, first compound 0.00949 µM) 95.9% | viability, T/C (second compound 0.03 µM, first compound 0.03 µM) 98.9% | viability, T/C (second compound 0.03 µM, first compound 0.0949 µM) 100% | viability, T/C (second compound 0.03 µM, first compound 0.3 µM) 91.3% | viability, T/C (second compound 0.0949 µM, first compound 0.000949 µM) 86.8% | viability, T/C (second compound 0.0949 µM, first compound 0.003 µM) 99.5% | viability, T/C (second compound 0.0949 µM, first compound 0.00949 µM) 103% | viability, T/C (second compound 0.0949 µM, first compound 0.03 µM) 95.2% | viability, T/C (second compound 0.0949 µM, first compound 0.0949 µM) 103% | viability, T/C (second compound 0.0949 µM, first compound 0.3 µM) 107% | viability, T/C (second compound 0.3 µM, first compound 0.000949 µM) 96.8% | viability, T/C (second compound 0.3 µM, first compound 0.003 µM) 102% | viability, T/C (second compound 0.3 µM, first compound 0.00949 µM) 94.1% | viability, T/C (second compound 0.3 µM, first compound 0.03 µM) 98.5% | viability, T/C (second compound 0.3 µM, first compound 0.0949 µM) 101% | viability, T/C (second compound 0.3 µM, first compound 0.3 µM) 94.9%
> 0.3 µM: IC50 (second compound 0.000949 µM) | IC50 (second compound 0.003 µM) | IC50 (second compound 0.00949 µM) | IC50 (second compound 0.03 µM) | IC50 (second compound 0.0949 µM) | IC50 (second compound 0.3 µM)
